Assay results taken from patent US20090030072A1, “PHARMACEUTICAL COMBINATION OF OPIOID AND PRO[…]” (SUCAMPO AG, priority 2007, published 2009).

Tested on: oxycodone-induced constipation in mice
Test: Graphite marker propulsion in the intestine, oxycodone-induced constipation in mice
Format: in vivo, Male Crlj: CD1 (ICR) mice
Settings: 150 minutes after graphite marker
Protocol: Male Crlj: CD1 (ICR) mice were given oral administration of 0.1 mL of graphite maker (INK-30 containing 1% tragacanth gum). Immediately after administration of the graphite marker, the animals were treated orally with oxycodone at 5 mg/kg. The dosing volume of oxycodone was set at 5 mL/kg; the animals of the normal group were given the same volume of 0.5% CMC—Na. Immediately after administration of oxycodone or 0.5% CMC—Na, the animal was treated with Compound 1. The dosing volume of the Compound 1 was set at 5 mL/kg; the animals of the normal and control groups were given the same volume of water for injection. The animals were euthanized by cervical dislocation 150 minutes after administration of graphite marker, and the abdomen was cut open. The distance from the stomach to the cecum, and moving distance of the graphite marker in the intestine were measured. Propulsion rate was calculated by the following formula.
Propulsion rate (%)=(Moving distance of graphite marker/Distance from the stomach to the cecum)×100

Compound | The graphite marker propulsion rate Mean ± S.E. (control group: oxycodone 5 mg/kg oral alone, n=15, p < 0.01 compared to normal group (99.8 ± 0.2)) [%] | The graphite marker propulsion rate Mean ± S.E. (control group: oxycodone 5 mg/kg oral alone, n=15, p < 0.01 compared to normal group (99.8 ± 0.2), listed as Oxycodone) [%] | The graphite marker propulsion rate Mean ± S.E. (Compound 1 100 μg/kg combined with oxycodone 5 mg/kg oral, n=15, p < 0.05 compared to control group) [%]
COc1ccc2c3c1O[C@H]1C(=O)CC[C@@]4(O)[C@@H](C2)N(C)CC[C@]314 [oxycodone] | 62.3±5.6 | 62.3 ± 5.6 | –
CCCCC(F)(F)C(=O)CCC1C(O)CC(=O)C1CCCCCCC(=O)O (stereo not drawn) [Compound 1, 13,14-dihydro-15-keto-16,16-difluoro-PGE1] | – | – | 80.5±5.5
